Results on twelve compounds are retold here after ChEMBL document CHEMBL1201862, “PubChem BioAssay data set” (2004).

Some test systems named below: ACHN; COLO 205; HCT-15; HL-60; K562; KM12; M14; Malme-3M; NCI-H522; OVCAR-4; OVCAR-8; SF-268; SF-295; SK-MEL-28; SK-MEL-5; SK-OV-3; SNB-75; SW-620; EKVX.
What all share (assay): DTP human tumour cell line panel, 48 h

What is called GI50 is the concentration that inhibits growth by half.

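1) Cells in 96-well plates. 2) Compound, 48 h, 5 concentrations. 3) Linear interpolation between surrounding doses. 4) Unreached endpoint = highest concentration. GI50 is the concentration that inhibits growth by half.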 Active and inactive are the calls of the source. Rule as the data show it: active = GI50 up to about 1.1 µM and inactive = higher.

On to `O=c1cc(-c2ccccc2)[nH]c2cc(F)cc(F)c12`, for which the GI50 was 50.9 µM (inactive) in the assay with ACHN; 16.1 µM (inactive) with COLO 205; 6.59 µM in the assay on HCT-15; 21.8 µM (inactive) with HL-60; 11.9 µM (inactive) in the assay on K562; 4.56 µM (inactive) in the assay on KM12. Also, the GI50 was 30.3 µM (inactive) in the assay on M14; 16.7 µM (inactive) with Malme-3M; 11.9 µM (inactive) in the assay on NCI-H522; > 100 µM (inactive) in the assay on OVCAR-4; 57.5 µM (inactive) in the assay on OVCAR-8; > 100 µM (inactive) with SF-268. Besides, the GI50 with SF-295 was 25.1 µM (inactive); in the assay with SK-MEL-28, 27.2 µM (inactive); in the assay on SK-MEL-5, 10.1 µM (inactive); in the assay with SK-OV-3 it was 19.7 µM (inactive); with SNB-75 it was 14.8 µM (inactive); in the assay on SW-620 it was 14.4 µM (inactive).
For the compound `Oc1cc(-c2ccc3ccccc3c2)nc2ncccc12`, the GI50 was 31.9 µM (inactive) in the assay with ACHN; 4.05 µM (inactive) with COLO 205; 33.2 µM (inactive) with EKVX; 4.18 µM in the assay on HCT-15; 2.7 µM (inactive) in the assay with K562; 4.88 µM (inactive) with KM12. For the same compound, the GI50 was 7.13 µM (inactive) in the assay with M14; 13.1 µM (inactive) in the assay on Malme-3M; 4.02 µM (inactive) with NCI-H522; 12.1 µM (inactive) with OVCAR-4; 23 µM (inactive) with OVCAR-8; 28.1 µM (inactive) with SF-268. For the same compound, the GI50 is 8.63 µM (inactive) with SK-MEL-28, 19.6 µM (inactive) with SK-OV-3, 11.5 µM (inactive) in the assay with SNB-75 and 5.18 µM (inactive) with SW-620.
For `ClC1c2ccccc2C2(c3ccccc3)OOC1(c1ccccc1)O2` (configuration not stated), the GI50 with ACHN was 1.55 µM (inactive); in the assay on COLO 205, 1.87 µM (inactive); in the assay with EKVX, 2.18 µM (inactive); in the assay with HCT-15, 1.53 µM; with HL-60, 0.136 µM (active); in the assay with K562 it was 1.38 µM (inactive). For the same compound, the GI50 was 1.77 µM (inactive) in the assay on KM12; 1.45 µM (inactive) in the assay with M14; 2.63 µM (inactive) in the assay on Malme-3M; 0.243 µM (active) in the assay with NCI-H522; 1.48 µM (inactive) in the assay with OVCAR-4; 2.03 µM (inactive) in the assay with OVCAR-8. For the same compound, the GI50 in the assay with SF-268 is 1.97 µM (inactive); in the assay on SF-295 it was 2.62 µM (inactive); with SK-MEL-28, 1.95 µM (inactive); with SK-MEL-5 it was 1.51 µM (inactive); in the assay on SNB-75, 1.77 µM (inactive); in the assay on SW-620 it was 1.39 µM (inactive).
`CN(C)CCNC(=O)c1cccc2nc3ccc4cccnc4c3nc12`: the GI50 in the assay with ACHN is 0.126 µM (active); in the assay with COLO 205, 0.232 µM (active); with EKVX, 0.507 µM (active); in the assay on HCT-15 it was 0.209 µM; with HL-60, 0.348 µM (active); in the assay with K562, 0.346 µM (active). The GI50 in the assay on KM12 was 0.564 µM (active); with M14 it was 0.631 µM (active); in the assay on OVCAR-4, 0.468 µM (active); in the assay on OVCAR-8 it was 0.194 µM (active); with SF-268 it was 0.298 µM (active); with SF-295, 0.644 µM (active). The GI50 with SK-MEL-28 is 0.944 µM (active); in the assay with SK-MEL-5, 0.343 µM (active); in the assay on SK-OV-3 it was 0.469 µM (active); in the assay on SNB-75, 0.507 µM (active); with SW-620, 0.0675 µM (active).
As to `NC1CCCCC1.O=P(O)(O)C1(P(=O)(O)O)CC1`, the GI50 in the assay with ACHN was > 100 µM (inactive); with COLO 205 it was > 100 µM (inactive); in the assay on EKVX, > 100 µM (inactive); in the assay on HCT-15, above 100 µM; in the assay with K562, > 100 µM (inactive); with KM12 it was > 100 µM (inactive). Moreover, the GI50 in the assay with M14, in the assay with Malme-3M, with NCI-H522, in the assay with OVCAR-4, with OVCAR-8 and in the assay on SF-268 was > 100 µM (inactive) throughout. For the same compound, the GI50 in the assay on SF-295, in the assay with SK-MEL-28, in the assay with SK-MEL-5, with SK-OV-3, in the assay on SNB-75 and with SW-620 was > 100 µM (inactive) each time.
Take `N#CC(C(=O)CCC(=O)Nc1cccc(C(F)(F)F)c1)c1ccccc1` (configuration not stated): the GI50 in the assay on ACHN was > 100 µM (inactive); with EKVX, > 100 µM (inactive); in the assay with HCT-15, above 100 µM; with HL-60 it was > 100 µM (inactive); in the assay with K562, > 100 µM (inactive); with KM12, > 100 µM (inactive). The GI50 in the assay on M14, in the assay with Malme-3M, in the assay with NCI-H522, in the assay on OVCAR-4, in the assay on OVCAR-8 and in the assay on SF-268 was > 100 µM (inactive) throughout. The GI50 in the assay on SF-295, with SK-MEL-28, with SK-MEL-5, in the assay on SNB-75 and in the assay with SW-620 was > 100 µM (inactive) in each case.
In the case of `O=C(Nc1c(O)[nH]c(=S)[nH]c1=O)c1ccc2ccccc2n1`, the GI50 in the assay on ACHN is > 100 µM (inactive); in the assay on COLO 205 it was > 100 µM (inactive); in the assay with HCT-15, above 100 µM; in the assay with HL-60, > 100 µM (inactive); in the assay with K562, > 100 µM (inactive); in the assay with M14, > 100 µM (inactive). For the same compound, the GI50 in the assay on Malme-3M, with NCI-H522, in the assay with OVCAR-4, in the assay with OVCAR-8, with SF-268 and with SF-295 was > 100 µM (inactive) in each case. In addition, the GI50 in the assay with SK-MEL-28, in the assay on SK-MEL-5, in the assay with SK-OV-3, in the assay with SNB-75 and in the assay on SW-620 was > 100 µM (inactive) in each case.
For the compound `CC(=O)CC(=O)/C=C/c1cccs1`, the GI50 with ACHN was 97.3 µM (inactive); with COLO 205, > 100 µM (inactive); in the assay with EKVX, > 100 µM (inactive); in the assay on HCT-15 it was 47.8 µM; in the assay on HL-60 it was 27.9 µM (inactive); with K562 it was 47.1 µM (inactive). The GI50 with KM12 is 55.2 µM (inactive); in the assay on M14, 54.2 µM (inactive); in the assay with Malme-3M, 58.2 µM (inactive); in the assay with NCI-H522, 42.3 µM (inactive); in the assay on OVCAR-4, 87.5 µM (inactive); in the assay with OVCAR-8, > 100 µM (inactive). The GI50 in the assay on SF-268 was 45 µM (inactive); in the assay with SF-295 it was > 100 µM (inactive); in the assay on SK-MEL-5, 37.1 µM (inactive); in the assay with SK-OV-3, > 100 µM (inactive); in the assay on SW-620, 70.1 µM (inactive).
For `Cc1c2cc[n+](COC(=O)c3ccccc3)cc2c(C)c2c1[nH]c1ccccc12`, the GI50 with ACHN is 0.532 µM (active); in the assay with COLO 205, 0.43 µM (active); in the assay with HL-60, 1.1 µM (active); in the assay on K562, 0.388 µM (active); with KM12, 0.533 µM (active); in the assay on Malme-3M it was 1.46 µM (inactive). Besides, the concentration for 50% growth inhibition (GI50) was 1.08 µM (active) in the assay on NCI-H522; 0.587 µM (active) in the assay with OVCAR-4; 0.551 µM (active) with OVCAR-8; 0.571 µM (active) with SF-268; 0.491 µM (active) with SF-295; 1.64 µM (inactive) in the assay with SK-MEL-28. For the same compound, the GI50 in the assay on SK-MEL-5 is 1.36 µM (inactive); with SK-OV-3, 1.39 µM (inactive); in the assay with SW-620, 0.383 µM (active).
`CC(C)(C)C(=O)ON1N=NC2C3CC(OCc4ccccc4)(OCc4ccccc4)C(O3)C21` (configuration not stated): the GI50 is 27.7 µM (inactive) with ACHN; 18.7 µM (inactive) in the assay on COLO 205; 20.1 µM with HCT-15; 3.79 µM (inactive) in the assay with HL-60; 11.7 µM (inactive) in the assay with K562; 23.6 µM (inactive) with KM12. Besides, the GI50 in the assay with M14 was 26.4 µM (inactive); in the assay with Malme-3M, 16.3 µM (inactive); in the assay on OVCAR-4, 22.6 µM (inactive); with SF-268, 29.1 µM (inactive); in the assay on SF-295, 22.1 µM (inactive); with SK-MEL-28 it was 19.1 µM (inactive). Further, the GI50 in the assay on SK-MEL-5 was 15.6 µM (inactive); in the assay with SK-OV-3, 53.1 µM (inactive); with SNB-75, 24.1 µM (inactive); with SW-620 it was 14.9 µM (inactive).
`CN[C@@H](C)[C@H](N)c1ccccc1`: the GI50 in the assay on ACHN is > 100 µM (inactive); in the assay on COLO 205, > 100 µM (inactive); in the assay with EKVX, > 100 µM (inactive); in the assay on HCT-15 it was above 100 µM; in the assay on K562, > 100 µM (inactive); in the assay with KM12, > 100 µM (inactive). Moreover, the GI50 in the assay with M14, in the assay on NCI-H522, in the assay on OVCAR-8, in the assay on SF-295, in the assay with SK-MEL-28 and in the assay with SK-MEL-5 was > 100 µM (inactive) each time. Further, the GI50 with SK-OV-3, with SNB-75 and in the assay with SW-620 was > 100 µM (inactive) each time.
In the case of `O=C1Nc2cc([N+](=O)[O-])c(Br)cc2C1=O`, the GI50 in the assay on ACHN is 18.2 µM (inactive); with COLO 205 it was 18.4 µM (inactive); in the assay with EKVX, 22.4 µM (inactive); in the assay on HCT-15 it was 18.9 µM; in the assay with K562, 18.1 µM (inactive); in the assay with KM12 it was 51.4 µM (inactive). The GI50 was 16.6 µM (inactive) with M14; 22.5 µM (inactive) in the assay with Malme-3M; 16.6 µM (inactive) in the assay with NCI-H522; 16.4 µM (inactive) in the assay on OVCAR-4; 16.4 µM (inactive) in the assay on OVCAR-8; 20.9 µM (inactive) with SF-268. In addition, the GI50 with SF-295 was 3.68 µM (inactive); in the assay on SK-MEL-28 it was 21.3 µM (inactive); in the assay on SK-MEL-5, 21.1 µM (inactive); in the assay with SK-OV-3, 17.5 µM (inactive); with SNB-75, 19 µM (inactive); with SW-620, 19.3 µM (inactive).
